Positions of bridges follow the written chain, without caps; N, C: chain ends. Non-standard residues stand in square brackets, D forms with d. Residues, ends and D or L forms follow the SMILES beside them. 1Nal = N[C@@H](Cc1cccc2ccccc12)C(=O)O
Key:
Experiment in all cases: cell-based
hNav1.5 = hNav1.5 (Homo sapiens, UniProt Q14524); details: IonWorks Quattro, use-dependent block, hNav1.5; read-out: IWQ Use Nav1.5
hNav1.3 = hNav1.3 (Homo sapiens, UniProt Q9NY46); details: IonWorks Quattro, use-dependent block, hNav1.3; read-out: IWQ Use Nav1.3
hNav1.7 = hNav1.7 (Homo sapiens, UniProt Q15858); format: cell-based; details: IonWorks Quattro, use-dependent block, hNav1.7; read-out: IWQ Use Nav1.7
hNav1.7, sequence (Q15858 whole entry, looked up): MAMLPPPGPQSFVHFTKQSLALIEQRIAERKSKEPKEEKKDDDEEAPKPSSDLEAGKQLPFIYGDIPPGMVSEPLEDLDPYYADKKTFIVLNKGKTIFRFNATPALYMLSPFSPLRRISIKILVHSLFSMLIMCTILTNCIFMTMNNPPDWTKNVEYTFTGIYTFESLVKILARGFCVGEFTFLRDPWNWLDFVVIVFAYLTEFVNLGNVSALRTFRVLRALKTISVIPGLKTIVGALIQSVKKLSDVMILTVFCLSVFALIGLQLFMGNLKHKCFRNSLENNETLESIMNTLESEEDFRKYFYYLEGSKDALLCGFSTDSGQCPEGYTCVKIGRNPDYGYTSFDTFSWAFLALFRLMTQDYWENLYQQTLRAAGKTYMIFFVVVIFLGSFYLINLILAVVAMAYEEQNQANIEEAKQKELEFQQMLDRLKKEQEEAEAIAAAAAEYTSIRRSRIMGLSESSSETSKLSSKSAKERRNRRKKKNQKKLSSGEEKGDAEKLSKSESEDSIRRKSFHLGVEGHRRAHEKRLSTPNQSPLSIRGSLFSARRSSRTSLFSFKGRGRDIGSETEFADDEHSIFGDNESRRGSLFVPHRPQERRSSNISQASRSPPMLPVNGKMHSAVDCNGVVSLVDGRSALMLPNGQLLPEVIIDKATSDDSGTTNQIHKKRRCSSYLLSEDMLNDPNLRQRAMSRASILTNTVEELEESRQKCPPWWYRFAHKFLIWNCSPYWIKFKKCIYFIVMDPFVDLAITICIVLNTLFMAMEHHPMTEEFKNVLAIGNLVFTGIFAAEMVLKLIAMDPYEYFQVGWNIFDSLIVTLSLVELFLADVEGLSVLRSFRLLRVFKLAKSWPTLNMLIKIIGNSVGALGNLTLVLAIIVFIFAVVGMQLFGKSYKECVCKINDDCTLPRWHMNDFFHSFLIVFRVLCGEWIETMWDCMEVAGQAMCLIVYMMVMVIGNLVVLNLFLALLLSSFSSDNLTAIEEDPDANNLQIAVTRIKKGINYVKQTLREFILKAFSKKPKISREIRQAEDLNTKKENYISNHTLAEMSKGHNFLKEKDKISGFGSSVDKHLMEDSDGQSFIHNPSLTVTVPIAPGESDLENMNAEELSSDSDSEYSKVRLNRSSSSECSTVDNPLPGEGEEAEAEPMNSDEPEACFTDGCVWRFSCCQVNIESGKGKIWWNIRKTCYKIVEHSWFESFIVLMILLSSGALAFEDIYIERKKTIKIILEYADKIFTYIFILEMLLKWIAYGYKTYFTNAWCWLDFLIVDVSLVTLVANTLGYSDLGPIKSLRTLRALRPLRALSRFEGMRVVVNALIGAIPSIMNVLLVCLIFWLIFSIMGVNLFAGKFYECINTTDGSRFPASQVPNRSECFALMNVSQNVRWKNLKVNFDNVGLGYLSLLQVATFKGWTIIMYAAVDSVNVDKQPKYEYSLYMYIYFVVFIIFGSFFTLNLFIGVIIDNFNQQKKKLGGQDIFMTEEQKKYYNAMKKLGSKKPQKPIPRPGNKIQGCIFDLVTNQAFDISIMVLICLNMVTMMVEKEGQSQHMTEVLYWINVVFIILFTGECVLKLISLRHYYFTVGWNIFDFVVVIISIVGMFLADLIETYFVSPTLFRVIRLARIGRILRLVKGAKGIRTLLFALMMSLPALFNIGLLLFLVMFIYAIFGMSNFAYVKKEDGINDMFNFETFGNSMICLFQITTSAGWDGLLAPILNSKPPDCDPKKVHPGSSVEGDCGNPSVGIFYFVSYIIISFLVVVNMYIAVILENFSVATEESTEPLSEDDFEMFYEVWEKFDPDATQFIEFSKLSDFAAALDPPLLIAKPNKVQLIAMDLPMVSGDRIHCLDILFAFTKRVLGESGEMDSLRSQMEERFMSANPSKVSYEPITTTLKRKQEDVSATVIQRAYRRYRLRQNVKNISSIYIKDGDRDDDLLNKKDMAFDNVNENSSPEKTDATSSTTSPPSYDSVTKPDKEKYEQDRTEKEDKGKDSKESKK

hNav1.3, sequence (Q9NY46 whole entry, looked up): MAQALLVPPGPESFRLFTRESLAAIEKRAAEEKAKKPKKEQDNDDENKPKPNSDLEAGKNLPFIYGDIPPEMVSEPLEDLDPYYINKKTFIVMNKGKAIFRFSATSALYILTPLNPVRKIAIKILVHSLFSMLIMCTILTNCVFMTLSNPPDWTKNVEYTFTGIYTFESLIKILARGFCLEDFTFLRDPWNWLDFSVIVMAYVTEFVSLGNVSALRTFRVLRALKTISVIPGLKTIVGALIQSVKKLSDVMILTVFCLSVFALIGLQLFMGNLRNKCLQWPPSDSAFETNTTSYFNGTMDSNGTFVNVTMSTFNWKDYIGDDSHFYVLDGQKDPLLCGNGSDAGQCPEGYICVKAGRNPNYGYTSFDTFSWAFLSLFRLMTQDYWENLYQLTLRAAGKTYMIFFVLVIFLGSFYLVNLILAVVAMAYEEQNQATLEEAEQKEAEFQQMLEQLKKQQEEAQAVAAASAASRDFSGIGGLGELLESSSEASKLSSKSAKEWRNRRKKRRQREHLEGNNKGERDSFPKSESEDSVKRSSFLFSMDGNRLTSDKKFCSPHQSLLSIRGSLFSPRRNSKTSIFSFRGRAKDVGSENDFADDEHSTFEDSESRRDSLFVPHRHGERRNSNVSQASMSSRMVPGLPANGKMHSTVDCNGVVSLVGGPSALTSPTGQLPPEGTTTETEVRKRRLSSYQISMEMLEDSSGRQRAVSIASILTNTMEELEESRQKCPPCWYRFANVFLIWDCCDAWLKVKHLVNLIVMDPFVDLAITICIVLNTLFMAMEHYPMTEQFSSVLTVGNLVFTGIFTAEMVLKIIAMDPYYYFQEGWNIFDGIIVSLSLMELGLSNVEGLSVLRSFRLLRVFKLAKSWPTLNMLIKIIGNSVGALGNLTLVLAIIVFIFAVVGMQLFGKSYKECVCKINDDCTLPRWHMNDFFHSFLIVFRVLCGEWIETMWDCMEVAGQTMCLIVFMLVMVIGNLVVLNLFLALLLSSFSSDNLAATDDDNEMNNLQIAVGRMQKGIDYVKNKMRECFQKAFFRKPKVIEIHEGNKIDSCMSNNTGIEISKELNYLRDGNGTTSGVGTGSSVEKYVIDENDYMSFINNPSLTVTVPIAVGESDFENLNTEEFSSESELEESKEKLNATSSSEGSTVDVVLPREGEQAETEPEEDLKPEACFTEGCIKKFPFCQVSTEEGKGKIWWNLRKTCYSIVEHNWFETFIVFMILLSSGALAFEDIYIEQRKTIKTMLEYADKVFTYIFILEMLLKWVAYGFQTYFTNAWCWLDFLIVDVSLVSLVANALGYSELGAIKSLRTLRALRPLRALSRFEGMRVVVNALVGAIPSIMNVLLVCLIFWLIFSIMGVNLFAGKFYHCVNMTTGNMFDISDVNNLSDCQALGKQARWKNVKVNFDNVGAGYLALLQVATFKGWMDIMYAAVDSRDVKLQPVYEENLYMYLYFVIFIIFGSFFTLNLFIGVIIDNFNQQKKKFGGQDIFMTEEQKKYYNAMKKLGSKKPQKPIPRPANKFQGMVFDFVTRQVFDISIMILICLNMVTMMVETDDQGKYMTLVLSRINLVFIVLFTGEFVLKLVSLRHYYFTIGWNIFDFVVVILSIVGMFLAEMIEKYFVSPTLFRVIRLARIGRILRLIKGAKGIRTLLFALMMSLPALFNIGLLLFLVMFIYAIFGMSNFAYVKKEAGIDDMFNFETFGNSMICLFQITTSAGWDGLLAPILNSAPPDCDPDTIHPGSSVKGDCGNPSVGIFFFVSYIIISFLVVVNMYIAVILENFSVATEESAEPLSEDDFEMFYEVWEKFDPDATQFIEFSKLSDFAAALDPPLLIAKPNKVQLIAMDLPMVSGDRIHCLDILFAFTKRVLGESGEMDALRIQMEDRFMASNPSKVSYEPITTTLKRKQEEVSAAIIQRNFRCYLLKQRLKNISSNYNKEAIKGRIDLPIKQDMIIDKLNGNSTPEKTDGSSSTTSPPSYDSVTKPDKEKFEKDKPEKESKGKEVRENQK

| Structure (SMILES) | IC50 (hNav1.5) [µM] | IC50 (hNav1.3) [µM] | IC50 (hNav1.7) [µM] |
| --- | --- | --- | --- |
| CC[C@H](C)[C@@H]1NC(=O)[C@@H]2CSSC[C@@H]3NC(=O)[C@H](C(C)C)NC(=O)[C@H](CC(C)C)NC(=O)[C@H](CC(N)=O)NC(=O)[C@@H]4CCCN4C(=O)[C@H](CCCNC(=N)N)NC(=O)[C@H](CSSC[C@H](NC(=O)[C@@H](N)CC(=O)O)C(=O)N[C@@H](CC(C)C)C(=O)NCC(=O)N[C@@H](C)C(=O)N[C@@H](CCSC)C(=O)N[C@@H](CCCNC(=N)N)C(=O)N[C@@H](CCCCN)C(=O)N2)NC(=O)[C@H](CSSC[C@@H](C(=O)N[C@@H](CCCCN)C(=O)N[C@@H](Cc2ccc(O)cc2)C(=O)N[C@H](C(=O)N[C@@H](Cc2ccccc2)C(N)=O)C(C)C)NC(=O)[C@H](Cc2c[nH]c4ccccc24)NC(=O)[C@H](CCCCN)NC(=O)[C@H](Cc2c[nH]cn2)NC(=O)[C@H]([C@@H](C)O)NC(=O)[C@H](CCCNC(=N)N)NC(=O)[C@H](CO)NC3=O)NC(=O)[C@H](CCCCN)NC(=O)[C@H](CC(=O)O)NC(=O)[C@H](Cc2cccc3ccccc23)NC(=O)[C@H](CC(=O)O)NC(=O)[C@@H]2CCCN2C1=O [compound 427] (H-DCLGAMRKCIPD[1Nal]DKCCRPNLVCSRTHKWCKYVF-NH2; disulfide 2-17, 9-23, 16-30) | > 5 | 1.18 | 0.65 |
| CC[C@H](C)[C@@H]1NC(=O)[C@@H]2CSSC[C@@H]3NC(=O)[C@H](C(C)C)NC(=O)[C@H](CC(C)C)NC(=O)[C@H](CC(N)=O)NC(=O)[C@@H]4CCCN4C(=O)[C@H](CCCNC(=N)N)NC(=O)[C@H](CSSC[C@H](NC(=O)[C@@H](N)CC(=O)O)C(=O)N[C@@H](CC(C)C)C(=O)NCC(=O)N[C@@H](C)C(=O)N[C@@H](CCSC)C(=O)N[C@@H](CCCNC(=N)N)C(=O)N[C@@H](CCCCN)C(=O)N2)NC(=O)[C@H](CSSC[C@@H](C(=O)N[C@@H](CCCCN)C(=O)N[C@@H](Cc2ccc(O)cc2)C(=O)N[C@H](C(=O)N[C@@H](Cc2ccccc2)C(N)=O)C(C)C)NC(=O)[C@H](Cc2c[nH]c4ccccc24)NC(=O)[C@H](CCCCN)NC(=O)[C@H](Cc2c[nH]cn2)NC(=O)[C@H]([C@@H](C)O)NC(=O)[C@H](CCCNC(=N)N)NC(=O)[C@H](CO)NC3=O)NC(=O)[C@H](CCCCN)NC(=O)[C@H](CC(=O)O)NC(=O)[C@H](Cc2c[nH]c3ccccc23)NC(=O)[C@H](CC(=O)O)NC(=O)[C@@H]2CCCN2C1=O [compound 428] (H-DCLGAMRKCIPDWDKCCRPNLVCSRTHKWCKYVF-NH2; disulfide 2-17, 9-23, 16-30) | > 5 | 1.1 | 0.67 |
| CC[C@H](C)[C@@H]1NC(=O)[C@@H]2CSSC[C@@H]3NC(=O)[C@H](C(C)C)NC(=O)[C@H](CC(C)C)NC(=O)[C@H](CC(N)=O)NC(=O)[C@@H]4CCCN4C(=O)[C@H](CCCNC(=N)N)NC(=O)[C@H](CSSC[C@H](NC(=O)[C@@H](N)CC(=O)O)C(=O)N[C@@H](CC(C)C)C(=O)N[C@@H](CCC(=O)O)C(=O)N[C@@H](C)C(=O)N[C@@H](CCSC)C(=O)N[C@@H](CCCNC(=N)N)C(=O)N[C@@H](CCCCN)C(=O)N2)NC(=O)[C@H](CSSC[C@@H](C(=O)N[C@@H](CCCCN)C(=O)N[C@@H](Cc2ccc(O)cc2)C(=O)N[C@H](C(=O)N[C@@H](Cc2ccccc2)C(N)=O)C(C)C)NC(=O)[C@H](Cc2c[nH]c4ccccc24)NC(=O)[C@H](CCCCN)NC(=O)[C@H](Cc2c[nH]cn2)NC(=O)[C@H]([C@@H](C)O)NC(=O)[C@H](CCCNC(=N)N)NC(=O)[C@H](CO)NC3=O)NC(=O)[C@H](CCCCN)NC(=O)[C@H](CC(=O)O)NC(=O)[C@H](CC(N)=O)NC(=O)[C@H](CC(=O)O)NC(=O)[C@@H]2CCCN2C1=O [compound 429] (H-DCLEAMRKCIPDNDKCCRPNLVCSRTHKWCKYVF-NH2; disulfide 2-17, 9-23, 16-30) | > 5 | 3.99 | 4.64 |

Source: patent publication US9340590B2 (priority 2011, dated 2016)
